Results on nine compounds are retold here after ChEMBL document CHEMBL1201862, “PubChem BioAssay data set” (2004).

Test [1] can be described thus: P. falciparum late gametocyte killing, dose response, luminescence (AID 1117278).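 Note: gametocytes exposed to compound for 24 hours.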 It is filed as functional, cell-based.
Test [2] is described as follows: Jurkat T cell cytotoxicity, dose response, cytotoxicity control for P. falciparum gametocyte viability project, luminescence (AID 1117277).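 Note: potency reflects loss of cellular ATP meaning fewer viable cells.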 It is filed as functional, cell-based.
The target in test [3] is T1, Mannose-6-phosphate isomerase (Homo sapiens, UniProt P34949).
T1 sequence (P34949 whole entry): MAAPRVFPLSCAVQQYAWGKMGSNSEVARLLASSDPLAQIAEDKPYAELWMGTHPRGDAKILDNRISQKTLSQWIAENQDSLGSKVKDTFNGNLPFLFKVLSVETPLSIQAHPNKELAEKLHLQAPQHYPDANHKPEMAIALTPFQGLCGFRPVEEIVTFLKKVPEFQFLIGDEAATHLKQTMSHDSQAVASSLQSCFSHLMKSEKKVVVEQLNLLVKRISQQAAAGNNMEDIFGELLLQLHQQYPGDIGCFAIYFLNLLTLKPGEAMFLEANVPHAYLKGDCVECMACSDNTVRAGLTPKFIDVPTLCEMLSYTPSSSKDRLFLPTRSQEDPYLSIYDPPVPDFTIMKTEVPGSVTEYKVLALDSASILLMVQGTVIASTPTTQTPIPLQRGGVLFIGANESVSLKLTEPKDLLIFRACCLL
Briefly: human PMI inhibitors, high substrate, primary screen, biochemical, fluorescence intensity, high mannose 6-phosphate (AID 1220).

Test [4] addresses Glucose-6-phosphate 1-dehydrogenase (Homo sapiens, UniProt P11413). Put plainly: human G6PD enzyme inhibitors, dose response, selectivity assay for P. falciparum G6PD inhibitor project, biochemical, fluorescence (AID 504792). The test is classed as functional.
Test [5] addresses T2, Polyadenylate-binding protein 1 (Homo sapiens, UniProt P11940). Briefly: PABP1 MLLE–PAM2 interaction inhibitors, dose response, miRNA deadenylation inhibitor project, biochemical, fluorescence polarization, Cy5-PAM2 peptide, secondary (AID 602260). To be noted: read-out: IC50_Mean. The test is classed as functional.
The target in test [6] is T2, Polyadenylate-binding protein 1. Put plainly: PABP1 MLLE–PAM2 binding inhibitor potency, dose response, biochemical, fluorescence polarization, FITC-PAM2 peptide (AID 602259). The test is classed as functional. To be noted: read-out: IC50_Mean. (Polarisation of emitted light reports the rotation of a fluorescent probe.)
Test [7] can be described thus: ADAM10 protease inhibitors, dose response, selectivity assay for ADAM17 exosite inhibitor project, biochemical, FRET peptide substrate, recombinant human ADAM10 (AID 743259).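 Note: ADAM10 enzyme cleaving a FRET peptide substrate.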
The nature of test [8]: cytotoxicity in OVCAR8 ovarian cancer cells, dose response, PAX8 project, cell-based, plate reader, dry powder samples (AID 743197). The test is classed as functional. To be noted: OVCAR-8.
A short description of test [9]: A2780 ovarian cancer cell cytotoxicity, dose response, cytotoxicity control, plate reader, dry powder samples (AID 743046). It is filed as functional, cell-based.
A further test concerns the target Paired box protein Pax-8 (Homo sapiens, UniProt Q06710). Briefly: inhibitors of PAX8-driven TPO luciferase reporter, dose response, RMG-I cells, cherry-pick (AID 687027).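 Note: luciferase reporter driven by Pax8 target thyroperoxidase promoter measured by SteadyGlo luminescence.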 The test is classed as functional, cell-based. A general note: Reporter assays use an easily measured gene product as a stand-in for the process of interest.
Test [10] in a line: IGROV1 ovarian cancer cell cytotoxicity, dose response, PAX8 inhibitor project, plate reader, dry powder samples (AID 743043). It is filed as functional, cell-based. Conditions: IGROV-1.
The nature of test [11]: NIH:OVCAR-3 ovarian cancer cell cytotoxicity, dose response, PAX8 inhibitor project, plate reader, dry powder samples (AID 743044). It is filed as functional, cell-based.
Test [12] addresses Disintegrin and metalloproteinase domain-containing protein 17 (Homo sapiens, UniProt P78536). Briefly: exosite inhibitors of ADAM17, dose response, biochemical (AID 743260).
Test [13] deals with HEK293. Put plainly: cells. The test is classed as functional, cell-based. To be noted: Homo sapiens.
The target of another test is Genome polyprotein (dengue virus type 2, UniProt P29990). Put plainly: Dengue-2 NS5 methyltransferase inhibitors, primary screen, biochemical, confirmation dose response (AID 588689). It is filed as functional.
Genome polyprotein, sequence (P29990 2492-3391 limits assumed): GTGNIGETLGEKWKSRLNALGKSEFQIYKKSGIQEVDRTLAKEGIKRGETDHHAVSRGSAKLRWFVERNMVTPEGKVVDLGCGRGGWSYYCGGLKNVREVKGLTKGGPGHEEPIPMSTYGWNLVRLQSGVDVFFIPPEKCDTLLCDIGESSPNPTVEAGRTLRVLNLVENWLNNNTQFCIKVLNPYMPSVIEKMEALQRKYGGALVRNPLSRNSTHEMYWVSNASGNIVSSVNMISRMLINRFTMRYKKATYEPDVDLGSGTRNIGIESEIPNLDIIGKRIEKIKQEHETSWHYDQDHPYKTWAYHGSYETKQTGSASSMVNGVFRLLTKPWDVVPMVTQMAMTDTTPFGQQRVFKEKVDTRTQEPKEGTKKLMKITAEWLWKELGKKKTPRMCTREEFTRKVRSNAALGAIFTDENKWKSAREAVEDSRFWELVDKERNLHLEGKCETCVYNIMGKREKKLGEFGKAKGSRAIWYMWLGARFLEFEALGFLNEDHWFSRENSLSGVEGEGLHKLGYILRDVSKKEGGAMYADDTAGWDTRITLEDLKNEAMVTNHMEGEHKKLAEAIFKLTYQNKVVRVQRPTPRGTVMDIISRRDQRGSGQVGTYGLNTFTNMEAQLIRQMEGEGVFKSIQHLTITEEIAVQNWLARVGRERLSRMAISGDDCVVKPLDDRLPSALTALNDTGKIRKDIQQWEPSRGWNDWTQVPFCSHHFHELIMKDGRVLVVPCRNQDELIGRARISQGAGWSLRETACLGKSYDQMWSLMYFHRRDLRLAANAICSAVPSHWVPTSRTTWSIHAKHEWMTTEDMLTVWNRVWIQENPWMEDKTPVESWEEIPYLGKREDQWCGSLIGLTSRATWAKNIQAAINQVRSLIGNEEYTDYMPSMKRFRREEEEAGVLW
The next test addresses Cytochrome P450 2D6 (Homo sapiens, UniProt P10635).
A further test addresses T3, Aminopeptidase N (Plasmodium falciparum FcB1/Columbia, UniProt O96935).
T3 sequence (O96935 whole entry): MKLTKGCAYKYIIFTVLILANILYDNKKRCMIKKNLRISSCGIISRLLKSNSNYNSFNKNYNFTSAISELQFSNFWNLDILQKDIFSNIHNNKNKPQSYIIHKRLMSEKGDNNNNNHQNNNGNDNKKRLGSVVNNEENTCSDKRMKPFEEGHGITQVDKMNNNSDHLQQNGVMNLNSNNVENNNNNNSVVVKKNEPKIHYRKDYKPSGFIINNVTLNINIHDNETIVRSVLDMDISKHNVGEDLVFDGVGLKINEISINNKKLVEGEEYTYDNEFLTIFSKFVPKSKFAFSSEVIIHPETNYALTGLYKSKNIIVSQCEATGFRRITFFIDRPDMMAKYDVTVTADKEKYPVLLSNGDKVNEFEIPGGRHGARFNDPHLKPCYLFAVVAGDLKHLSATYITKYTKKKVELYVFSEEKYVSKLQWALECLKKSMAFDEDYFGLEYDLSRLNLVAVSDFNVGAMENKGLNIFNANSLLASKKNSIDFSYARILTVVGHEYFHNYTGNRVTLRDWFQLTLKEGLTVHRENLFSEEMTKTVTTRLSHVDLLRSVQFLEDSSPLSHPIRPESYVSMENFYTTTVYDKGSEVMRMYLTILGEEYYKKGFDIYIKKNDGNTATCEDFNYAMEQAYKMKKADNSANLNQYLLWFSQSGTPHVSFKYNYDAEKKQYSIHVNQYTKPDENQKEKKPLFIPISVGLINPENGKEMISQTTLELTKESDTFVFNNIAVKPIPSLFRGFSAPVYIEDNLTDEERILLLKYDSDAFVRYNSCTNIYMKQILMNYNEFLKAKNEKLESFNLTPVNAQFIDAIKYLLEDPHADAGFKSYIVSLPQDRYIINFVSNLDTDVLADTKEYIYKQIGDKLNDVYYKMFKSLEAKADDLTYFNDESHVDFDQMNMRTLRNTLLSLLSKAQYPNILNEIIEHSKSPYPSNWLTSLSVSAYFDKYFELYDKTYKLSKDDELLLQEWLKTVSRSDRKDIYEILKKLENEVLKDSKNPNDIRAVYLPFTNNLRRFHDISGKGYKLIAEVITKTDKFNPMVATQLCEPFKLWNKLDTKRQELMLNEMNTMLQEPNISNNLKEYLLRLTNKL
Briefly: P. falciparum M1AAP inhibitors, biochemical, fluorogenic H-Leu-NHMec substrate, 1536-well (AID 1445). The arrangement: species or system Plasmodium falciparum 3D7, 3D7.

Test [14] has as its system HEK293. Put plainly: cells. It is filed as functional, cell-based. Conditions: Homo sapiens. This is another data set of the same source.
In test [15] the target is T4, Calpain-2 catalytic subunit (Sus scrofa, UniProt P43367).
T4 sequence (P43367 whole entry): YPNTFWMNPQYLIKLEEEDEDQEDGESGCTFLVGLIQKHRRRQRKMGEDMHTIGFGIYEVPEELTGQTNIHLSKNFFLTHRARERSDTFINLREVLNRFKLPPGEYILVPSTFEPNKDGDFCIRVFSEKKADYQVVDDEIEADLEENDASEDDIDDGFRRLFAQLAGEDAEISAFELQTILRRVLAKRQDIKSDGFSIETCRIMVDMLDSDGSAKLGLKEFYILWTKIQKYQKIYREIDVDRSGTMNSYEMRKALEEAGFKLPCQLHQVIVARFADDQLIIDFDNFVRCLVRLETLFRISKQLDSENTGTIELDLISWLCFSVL
Briefly: pig calpain II inhibitor potency, dose response, biochemical, fluorogenic peptide substrate (AID 1420). The test is classed as functional.

Test [16] relates to HEK293. Briefly: NOD2 signaling inhibitors in MDP-stimulated cells, cell-based, uHTS, luminescence (AID 2001). The test is classed as functional. To be noted: Homo sapiens.
The next test concerns the target T5, Cytochrome P450 1A2 (Homo sapiens, UniProt P05177).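 Note: PubChem cytochrome P450 panel assay, CYP1A2 panel member.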
T5 sequence (P05177 whole entry): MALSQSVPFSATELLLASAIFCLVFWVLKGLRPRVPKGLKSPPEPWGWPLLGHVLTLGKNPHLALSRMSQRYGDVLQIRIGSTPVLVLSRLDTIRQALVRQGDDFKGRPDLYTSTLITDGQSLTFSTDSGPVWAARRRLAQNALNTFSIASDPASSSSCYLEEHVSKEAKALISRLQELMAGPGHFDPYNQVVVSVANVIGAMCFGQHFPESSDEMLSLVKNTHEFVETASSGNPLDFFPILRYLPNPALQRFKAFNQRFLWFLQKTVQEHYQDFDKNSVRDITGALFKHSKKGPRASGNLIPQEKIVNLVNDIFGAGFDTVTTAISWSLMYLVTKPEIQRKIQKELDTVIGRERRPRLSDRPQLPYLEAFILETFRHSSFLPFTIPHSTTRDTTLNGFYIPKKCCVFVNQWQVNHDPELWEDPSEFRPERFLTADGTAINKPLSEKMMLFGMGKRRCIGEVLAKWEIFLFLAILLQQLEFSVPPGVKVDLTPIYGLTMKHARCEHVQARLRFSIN

SMILES strings stand for the structures. Activity calls are given as the source filed them.

T2 sequence (P11940 whole entry): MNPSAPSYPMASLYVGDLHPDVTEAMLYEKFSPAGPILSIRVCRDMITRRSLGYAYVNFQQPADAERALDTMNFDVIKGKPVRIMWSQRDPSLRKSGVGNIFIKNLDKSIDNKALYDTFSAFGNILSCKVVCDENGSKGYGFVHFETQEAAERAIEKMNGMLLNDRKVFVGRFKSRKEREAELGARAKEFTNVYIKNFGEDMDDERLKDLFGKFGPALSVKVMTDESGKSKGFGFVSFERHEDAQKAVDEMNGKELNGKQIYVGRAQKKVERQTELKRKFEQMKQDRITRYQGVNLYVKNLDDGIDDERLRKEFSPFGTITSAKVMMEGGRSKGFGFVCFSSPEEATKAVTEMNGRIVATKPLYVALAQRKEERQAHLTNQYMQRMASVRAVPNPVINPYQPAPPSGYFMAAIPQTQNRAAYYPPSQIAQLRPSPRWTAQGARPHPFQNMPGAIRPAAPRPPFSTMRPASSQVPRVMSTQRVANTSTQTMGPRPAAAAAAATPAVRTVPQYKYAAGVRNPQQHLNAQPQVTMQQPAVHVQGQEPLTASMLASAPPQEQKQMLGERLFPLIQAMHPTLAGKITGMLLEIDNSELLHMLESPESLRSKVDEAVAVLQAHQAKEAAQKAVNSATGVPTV
Glucose-6-phosphate 1-dehydrogenase, sequence (P11413 whole entry): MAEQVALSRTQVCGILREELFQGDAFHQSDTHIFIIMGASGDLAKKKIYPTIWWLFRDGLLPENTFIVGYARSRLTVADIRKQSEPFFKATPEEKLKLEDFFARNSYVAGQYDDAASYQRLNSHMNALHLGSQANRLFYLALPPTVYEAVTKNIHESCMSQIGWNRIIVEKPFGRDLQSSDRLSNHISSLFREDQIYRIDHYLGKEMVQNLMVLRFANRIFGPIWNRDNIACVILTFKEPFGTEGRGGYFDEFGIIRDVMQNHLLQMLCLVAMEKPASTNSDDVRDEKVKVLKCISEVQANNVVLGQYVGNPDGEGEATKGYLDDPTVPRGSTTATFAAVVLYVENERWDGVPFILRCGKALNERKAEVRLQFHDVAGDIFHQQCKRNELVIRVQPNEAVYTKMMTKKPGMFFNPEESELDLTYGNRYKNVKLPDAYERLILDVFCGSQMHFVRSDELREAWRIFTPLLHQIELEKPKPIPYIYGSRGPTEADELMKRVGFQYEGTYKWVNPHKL
Disintegrin and metalloproteinase domain-containing protein 17, sequence (P78536 whole entry, the tested form may be a part): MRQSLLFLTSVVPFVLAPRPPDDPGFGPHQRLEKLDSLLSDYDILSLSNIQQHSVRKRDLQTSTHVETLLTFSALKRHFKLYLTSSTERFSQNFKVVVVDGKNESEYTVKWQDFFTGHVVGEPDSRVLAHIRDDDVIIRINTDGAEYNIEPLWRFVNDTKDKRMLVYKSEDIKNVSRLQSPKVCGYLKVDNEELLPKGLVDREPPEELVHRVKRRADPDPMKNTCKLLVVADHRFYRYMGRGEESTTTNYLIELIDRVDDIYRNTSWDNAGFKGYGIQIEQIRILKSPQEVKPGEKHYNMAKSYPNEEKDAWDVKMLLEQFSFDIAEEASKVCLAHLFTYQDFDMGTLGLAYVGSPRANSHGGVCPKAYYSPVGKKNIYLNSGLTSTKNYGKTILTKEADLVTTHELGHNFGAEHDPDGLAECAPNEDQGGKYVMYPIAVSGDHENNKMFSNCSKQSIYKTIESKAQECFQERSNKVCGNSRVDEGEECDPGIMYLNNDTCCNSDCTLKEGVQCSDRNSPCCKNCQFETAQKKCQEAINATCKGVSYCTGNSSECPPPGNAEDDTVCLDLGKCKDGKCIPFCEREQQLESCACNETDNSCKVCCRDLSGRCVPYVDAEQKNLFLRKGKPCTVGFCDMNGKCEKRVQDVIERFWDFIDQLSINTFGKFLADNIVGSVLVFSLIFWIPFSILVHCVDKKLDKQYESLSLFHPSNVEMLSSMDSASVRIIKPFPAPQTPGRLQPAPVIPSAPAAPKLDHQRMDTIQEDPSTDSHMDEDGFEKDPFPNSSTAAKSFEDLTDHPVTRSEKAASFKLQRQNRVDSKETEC
Paired box protein Pax-8, sequence (Q06710 whole entry): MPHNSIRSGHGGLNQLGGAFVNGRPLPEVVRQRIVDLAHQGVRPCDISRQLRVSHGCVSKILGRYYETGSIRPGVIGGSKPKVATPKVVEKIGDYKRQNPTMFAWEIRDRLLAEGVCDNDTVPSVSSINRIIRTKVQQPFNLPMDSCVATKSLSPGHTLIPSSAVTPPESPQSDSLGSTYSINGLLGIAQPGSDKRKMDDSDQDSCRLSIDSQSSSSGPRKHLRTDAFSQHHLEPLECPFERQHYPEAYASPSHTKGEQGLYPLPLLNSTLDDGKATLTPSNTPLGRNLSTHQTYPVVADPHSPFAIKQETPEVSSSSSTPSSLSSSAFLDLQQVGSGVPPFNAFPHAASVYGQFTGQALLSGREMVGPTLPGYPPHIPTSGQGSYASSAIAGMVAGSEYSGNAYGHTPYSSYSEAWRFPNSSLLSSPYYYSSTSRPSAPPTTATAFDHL
Cytochrome P450 2D6, sequence (P10635 whole entry): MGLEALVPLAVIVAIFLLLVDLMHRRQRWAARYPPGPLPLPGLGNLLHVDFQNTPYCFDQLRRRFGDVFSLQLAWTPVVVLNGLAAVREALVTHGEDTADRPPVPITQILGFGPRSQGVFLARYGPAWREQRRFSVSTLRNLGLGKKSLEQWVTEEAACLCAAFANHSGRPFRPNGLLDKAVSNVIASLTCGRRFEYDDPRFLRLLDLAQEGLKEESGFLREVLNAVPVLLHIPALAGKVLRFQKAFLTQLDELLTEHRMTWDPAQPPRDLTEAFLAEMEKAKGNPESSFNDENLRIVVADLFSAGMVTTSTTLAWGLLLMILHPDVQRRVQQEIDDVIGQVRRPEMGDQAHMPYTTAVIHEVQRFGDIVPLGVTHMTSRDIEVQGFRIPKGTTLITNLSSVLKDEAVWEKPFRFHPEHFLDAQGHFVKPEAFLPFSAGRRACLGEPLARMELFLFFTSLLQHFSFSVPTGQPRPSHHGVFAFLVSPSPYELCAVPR

As to `COc1ccc(/C=C/c2c(-c3ccc(OC)cc3)oc3cccnc23)cc1`, the IC50 is > 109 µM (inactive) in test [1] and > 83.3 µM (inactive) in test [2].

As to `Cc1ccc(-c2nc(N)s[n+]2-c2ccccc2)cc1`, the IC50 in test [3] is 4.91 µM (active); in test [4], 27.2 µM (inactive); in test [5] it was > 66 µM (inactive); in test [6], > 66 µM (inactive).

With `Cc1cccc(NS(=O)(=O)c2ccc3nc(O)cc(C(=O)OC(C)C(=O)Nc4ccc([N+](=O)[O-])cc4)c3c2)c1` (stereo not given), the IC50 in test [7] was > 69.5 µM (inactive).

Turning to `Cc1ccc(S(=O)(=O)Nc2ccc3c(c2)C(=O)N([C@H](C)CO)C[C@@H](C)[C@@H](CN(C)CC2CCCCC2)OCCCC[C@@H](C)O3)cc1`, the half-maximal activity concentration (AC50) (commonly the concentration at which the activity in the assay is half-maximal) in [8] was 40.4 µM (active); in [9], 38.2 µM (active); on Paired box protein Pax-8, 5.51 µM (active); in test [10] it was 38.8 µM (active); in test [11], 26.5 µM (active).

Take `Cc1ccccc1/N=C/c1cccc(O)c1O`: the IC50 in [3] was 11.2 µM (active).

For the compound `Cc1cc(C)cc(-n2c(SC(C)C(=O)NCc3ccc4c(c3)OCO4)nc3ccccc3c2=O)c1` (stereo not given), the figures for the IC50 in test [12] and in test [7] were > 69.5 µM (inactive) and 18.3 µM (inactive), respectively.

On to `CCOC(=O)C1CCN(Cc2c(O)ccc3ccccc23)CC1`, for which the IC50 in test [3] was > 50 µM (not active).

As for `O=S(=O)(Nc1nc(-c2sccc2Cl)cs1)c1cc(Cl)ccc1Cl`, the IC50 in the test on HEK293 [13] was 10.4 µM (active); on Genome polyprotein, 41.6 µM (active); at Aminopeptidase N, 44.1 µM (active); in the test on HEK293 [14] it was 17.7 µM (active); in test [15], 5 µM (not active); in the test on HEK293 [16], 7.47 µM (active). Further, the half-maximal activity concentration (AC50) at Cytochrome P450 2D6 and on Cytochrome P450 1A2 was 28.2 µM (inconclusive) each time.

`O=C(COc1ccc([N+](=O)[O-])cc1)Nc1ccc(CN2CCOCC2)cc1`: in [15], the IC50 was 41.1 µM (not active).
